Entries after “also recorded” stand apart in the source; their conditions may differ.
Columns and labels:
RAW264.7 cells = test: In vitro immunomodulatory activity: cytokine secretion by RAW264.7 cells (ELISA); type: cell-based, murine; details: 10 μg/mL, 12 h
Protocol: RAW264.7 cells were seeded at a density of 1.0 × 10^6 cell/mL and treated with (10 μg/mL) or without peptides in each well of a 6-well plate for 12 h at 37°C in a humidified incubator with 5% CO2. After treatment, TNF-α, IL-6 and IL-1β secretion in the cell supernatants was assessed using ELISA kits according to the manufacturer’s instructions.

[1] = test system: CTX-immunosuppressed murine model; test: Body weight and immune organ indices in CTX-immunosuppressed mice; type: in vivo, BALB/c mice; details: CTX 80 mg/kg i.p. 3 days, peptide 10 mg/kg i.p. days 4-10, n = 12
Protocol: BALB/c mice (female, 6–8 weeks; Charles River, Beijing, China) used in this study were maintained in a specific-pathogen-free facility (55 ± 10% humidity and 22 ± 1°C) during the experiments. These experiments were conducted with approval from the Institutional Animal Care and Use Committee of China Agricultural University (certificate of the Beijing Laboratory Animal employee, ID: 18086).
(§1) After a 7-day adaptation period, the mice were randomly divided into five groups (n = 12 in each group): (1) control group: physiological saline was injected intraperitoneally once daily; (2) cyclophosphamide (CTX) group: CTX (80 mg/kg mouse weight; Sigma-Aldrich, St. Louis, MO, United States) was injected intraperitoneally once daily for the first 3 days. […] From days 4 to 10, peptide (10 mg/kg mouse weight) was injected intraperitoneally into mice once daily. Twenty-four hours after the last drug administration, all the mice were weighed and then euthanized, and their tissues and blood were collected for further study. The body weight index was calculated according to the formula:
Index(%)=finalbodyweight-initalbodyweight/initialbodyweight×100
The thymus and spleen indices were measured by the following formula:
Index(mg/g)=weightofthymusorspleen/bodyweight

[2] = test system: T lymphocyte subpopulations (CD4 +, CD8 +), mouse peripheral blood; test: Peripheral blood T lymphocyte subpopulations by flow cytometry; type: in vivo, BALB/c mice; details: CTX 80 mg/kg i.p. 3 days; peptide 10 mg/kg i.p. days 4-10; three biological replicates
Protocol: as §1, with “formula: […]” for “formula:”
Erythrocytes were aseptically obtained from the different groups of mouse peripheral blood and lysed with RBC lysis buffer. The remaining cells were washed with PBS and resuspended in PBS. The cells were combined with peridinin-chlorophyll-protein complex (PerCP)-conjugated anti-mouse CD3 +, allophycocyanin (APC)-conjugated anti-mouse CD4 +, and fluorescein isothiocyanate (FITC)-conjugated anti-mouse CD8 + (BD Pharmingen, United States) for 30 min at 4°C. The T lymphocyte subpopulations were analyzed by flow cytometry.

[3] = test system: MHC class II, mouse PBMCs; test: DC maturation: MHC-II expression by flow cytometry; type: in vivo, BALB/c mice; details: CTX 80 mg/kg i.p. 3 days; peptide 10 mg/kg i.p. days 4-10; three biological replicates
Protocol: as §1, with “formula: […]” for “formula:”
Mouse peripheral blood mononuclear cells (PBMCs) were obtained from the different groups of mice through Ficoll density gradient centrifugation. The cells were resuspended in PBS with 5% FBS and incubated with 10% (v/v) normal goat serum for 15 min at 4°C. The cells were combined with FITC-conjugated antibodies specific for MHC class II (MHC-II; BD Pharmingen, United States). The surface expression of MHC-II was determined by flow cytometry.

[4] = test system: serum TNF-α, IL-6, and IL-1β; test: Serum cytokines by ELISA in CTX-treated mice; type: in vivo, BALB/c mice; details: CTX 80 mg/kg i.p. 3 days, peptide 10 mg/kg i.p. days 4-10, three biological replicates
Protocol: as §1, with “formula: […]” for “formula:”
(§2) Serum was collected from blood and then assayed by ELISA kits according to the protocol supplied by the manufacturer (eBioscience, San Diego, United States) to determine the secretion of IgG, IgA, IgM, TNF-α, IL-6, and IL-1β.

serum IgA, IgG, and IgM = test: Serum immunoglobulins by ELISA in CTX-treated mice; type: in vivo, BALB/c mice; details: CTX 80 mg/kg i.p. 3 days, peptide 10 mg/kg i.p. days 4-10, three biological replicates
Protocol: as §1, with “formula: […]” for “formula:”
as §2

TLR2, RAW264.7 cells [5] = test: TLR2 blocking experiment (anti-mouse TLR2 C9A12, then LTPa); type: cell-based; details: LTPa 10 μg/mL, 24 h; with or without TLR2 mAb (C9A12) 1 h before; ELISA
Protocol: For TLR2 blocking experiments, RAW264.7 cells were cultured in 24-well plates overnight at 37°C. The mouse IgG2a isotype control antibody or anti-mouse TLR2 (C9A12; InvivoGen, San Diego, CA, United States) was added to the cell cultures 1 h before being treated with LTPa for 24 h at 37°C. Then, the levels of TNF-α, IL-6, and IL-1β in the culture supernatant were analyzed.

TLR2 = test: Surface plasmon resonance, immobilized TLR2; type: binding; details: Biacore X100, CM5 chip, PBS containing 0.05% Tween 20; 0, 1.25, 2.5, 5, and 10 mM
Protocol: Surface plasmon resonance (SPR) experiments were carried out using a Biacore X100 instrument (GE Healthcare, Pittsburgh, PA, United States) by standard amine coupling. TLR2 (R&D Systems, Minneapolis, MN, United States) was amine-coupled to a Biacore CM5 sensor chip (Bio-Rad). The peptide was diluted to varying concentrations (0, 1.25, 2.5, 5, and 10 mM) in running buffer (PBS containing 0.05% Tween 20) and run sequentially over immobilized TLR2. Binding curves were processed for the initial injection alignment and baseline, and a reference-subtracted sensorgram was globally fitted to the curves to describe a homogeneous 1:1 model. Data analysis was conducted using ProteOn manager software (version 2.0). Data from the protein surfaces were grouped together to fit the association kinetic rate constant (Ka) and the dissociation rate constant (Kd). The equilibrium dissociation constant (KD) for the peptide-TLR2 interaction was calculated as follows: […]

TLR2, RAW264.7 cells [6] = test: Cell surface TLR2 cluster formation by confocal laser-scanning microscopy; type: cell-based, mouse; details: LTPa 10 μg/mL, 1 h, 37°C; clusters = fluorescence > 40 arbitrary units; three independent experiments
Protocol: RAW264.7 cells were treated with or without 10 μg/mL LTPa for 1 h at 37°C. The cells were then incubated (30 min, on ice) with anti-mouse monoclonal antibody TLR2 or isotype control (IgG) (eBioscience) before washing with PBS. Then, the cells were stained with a FITC–conjugated anti-mouse IgG antibody for 30 min on ice (Jackson Laboratories). After washing with PBS and fixing with paraformaldehyde, the cell nuclei were stained with DAPI (1:500 dilution in PBS) (Sigma-Aldrich). The cells were then imaged with the Leica TCS SP5 confocal system (Leica Microsystems Ltd.). LAS AF software was used to process the images and quantify the fluorescence. In addition, to generate a fluorescence histogram profile, a line was drawn along the cell surface. Fluorescence intensities higher than 40 arbitrary units (isotype control staining) were considered clusters of TLR2 molecules.

[7] = 37°C, ELISA, three independent experiments

binding to TLR2 (SPR) (TLR2): could effectively bind to the TLR2
Sequence: IGKEFKRIVQRIKDFLRNLVPRTERKDVT [LTPa, hybrid peptide combining LL-37a and TP5]
IL-1β secretion (RAW264.7 cells; [7]): remarkable increases
IL-6 secretion (RAW264.7 cells; [7]): remarkable increases
TNF-α secretion (RAW264.7 cells; [7]): remarkable increases
secretion of TNF-α, IL-6, and IL-1β (comparison between peptides) (RAW264.7 cells; vs the other peptides tested): significantly increased the secretion of TNF-α, IL-6, and IL-1β in comparison with the other peptides tested
spleen index [1]: significantly higher than those in the LL-37-treated and TP5-treated groups
thymus index [1]: significantly higher than those in the LL-37-treated and TP5-treated groups
bodyweight ([1]; CTX group vs control): improved bodyweight rapidly; also recorded: significantly higher than that in the parental peptide (LL-37 and TP5)-treated groups
proportions of CD4 + and CD8 + T lymphocytes [2]: significantly higher than that in the LL-37-treated group and similar to that in the TP5-treated group
expression of MHC-II [3]: increased by LTPa treatment; also recorded: significantly higher than that in the LL-37-treated and TP5-treated groups
serum IL-1β level [4]: higher than those in the TP5- or LL-37-treated groups; also recorded: efficiently reversed the declines
serum IL-6 level [4]: higher than those in the TP5- or LL-37-treated groups; also recorded: efficiently reversed the declines
serum TNF-α level [4]: higher than those in the TP5- or LL-37-treated groups; also recorded: efficiently reversed the declines
serum IgA level (serum IgA, IgG, and IgM): significantly higher total serum IgA, IgG, and IgM levels than mice in the TP5- or LL-37-treated groups
serum IgG level (serum IgA, IgG, and IgM): significantly higher total serum IgA, IgG, and IgM levels than mice in the TP5- or LL-37-treated groups
serum IgM level (serum IgA, IgG, and IgM): significantly higher total serum IgA, IgG, and IgM levels than mice in the TP5- or LL-37-treated groups
TNF-α, IL-6, and IL-1β production (TLR2, RAW264.7 cells [5]): significantly caused increase levels of TNF-α, IL-6, and IL-1β
TLR2 clusters per micrometer on the cell surface (TLR2, RAW264.7 cells [6]): significantly increased the number of major TLR2 clusters per micrometer on the cell surface

— article PMC7905067, “Design and Immunological Evaluation of a Hybrid Peptide as a Potent TLR2 Agonist by Structure-Based Virtual Screening” (Frontiers in Cell and Developmental Biology, 2021)
